PubChem BioAssay AID2060491 (Molecular Pharmacology Branch, DTP, NCI, 2025)

Tested on: 857933-349-R-J2-PDC complex spheroids, viability
Assay: Anticancer human tumor 857933-349-R-J2-PDC patient-derived colon adenocarcinoma cell line growth inhibition [GQUAD]
Conditions: for IC50: curve of first compound; for viability, T/C: stronger effect = lower value
In short: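 Multi-cell-type spheroids of tumor cells with HUVEC and mesenchymal stem cells, treated with drug combinations. Concentrations descend in half-log steps from near clinical Cmax, or from 10 microM where Cmax is unknown; viability read-out.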

[1] = second compound 0.0316 µM, first compound 0.0316 µM
[2] = second compound 0.0316 µM, first compound 0.1 µM
[3] = second compound 0.0316 µM, first compound 0.316 µM
[4] = second compound 0.0316 µM, first compound 1 µM
[5] = second compound 0.0316 µM, first compound 3.16 µM
[6] = second compound 0.0316 µM, first compound 10 µM
[7] = second compound 0.1 µM, first compound 0.0316 µM
[8] = second compound 0.1 µM, first compound 0.1 µM
[9] = second compound 0.1 µM, first compound 0.316 µM
[10] = second compound 0.1 µM, first compound 1 µM
[11] = second compound 0.1 µM, first compound 3.16 µM
[12] = second compound 0.1 µM, first compound 10 µM
[13] = second compound 0.316 µM, first compound 0.0316 µM
[14] = second compound 0.316 µM, first compound 0.1 µM
[15] = second compound 0.316 µM, first compound 0.316 µM
[16] = second compound 0.316 µM, first compound 1 µM
[17] = second compound 0.316 µM, first compound 3.16 µM
[18] = second compound 0.316 µM, first compound 10 µM
[19] = second compound 1 µM, first compound 0.0316 µM
[20] = second compound 1 µM, first compound 0.1 µM
[21] = second compound 1 µM, first compound 0.316 µM
[22] = second compound 1 µM, first compound 1 µM
[23] = second compound 1 µM, first compound 3.16 µM
[24] = second compound 1 µM, first compound 10 µM
[25] = second compound 3.16 µM, first compound 0.0316 µM
[26] = second compound 3.16 µM, first compound 0.1 µM
[27] = second compound 3.16 µM, first compound 0.316 µM
[28] = second compound 3.16 µM, first compound 1 µM
[29] = second compound 3.16 µM, first compound 3.16 µM
[30] = second compound 3.16 µM, first compound 10 µM
[31] = second compound 10 µM, first compound 0.0316 µM
[32] = second compound 10 µM, first compound 0.1 µM
[33] = second compound 10 µM, first compound 0.316 µM
[34] = second compound 10 µM, first compound 1 µM
[35] = second compound 10 µM, first compound 3.16 µM
[36] = second compound 10 µM, first compound 10 µM
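Further: spheroids exposed to compounds for one week before readout.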
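Wherever viability, T/C is given: percent viability relative to vehicle DMSO wells taken as 100%.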

CC(C)(O)C1CCC(Nc2ccc3ncc(-c4cccc(C(F)(F)F)c4)n3n2)CC1 (stereo unspecified) + CN(C)c1ccc(Nc2c3ccc(NC(=O)CCN4CCCC4)cc3nc3cc(NC(=O)CCN4CCCC4)ccc23)cc1
IC50 (second compound 0.0316 µM): 0.801 µM | IC50 (second compound 0.1 µM): 0.732 µM | IC50 (second compound 0.316 µM): 0.691 µM | IC50 (second compound 1 µM): 0.684 µM | IC50 (second compound 3.16 µM): 0.596 µM | IC50 (second compound 10 µM): 0.456 µM | viability, T/C [1]: 117% | viability, T/C [2]: 98.4% | viability, T/C [3]: 97.5% | viability, T/C [4]: 39.1% | viability, T/C [5]: 2.79% | viability, T/C [6]: 2.75% | viability, T/C [7]: 102% | viability, T/C [8]: 94% | viability, T/C [9]: 89.3% | viability, T/C [10]: 35.6% | viability, T/C [11]: 2.84% | viability, T/C [12]: 2.87% | viability, T/C [13]: 99% | viability, T/C [14]: 94.3% | viability, T/C [15]: 87.2% | viability, T/C [16]: 32.6% | viability, T/C [17]: 3.05% | viability, T/C [18]: 3.1% | viability, T/C [19]: 94% | viability, T/C [20]: 83.2% | viability, T/C [21]: 83.3% | viability, T/C [22]: 33.8% | viability, T/C [23]: 3.77% | viability, T/C [24]: 3.15% | viability, T/C [25]: 78.9% | viability, T/C [26]: 75.5% | viability, T/C [27]: 74.2% | viability, T/C [28]: 30.4% | viability, T/C [29]: 7.32% | viability, T/C [30]: 5.21% | viability, T/C [31]: 62.9% | viability, T/C [32]: 66.4% | viability, T/C [33]: 59.4% | viability, T/C [34]: 30.1% | viability, T/C [35]: 15.3% | viability, T/C [36]: 9.67%

C=CC(=O)N1CCN(c2nc(=O)n(-c3c(C)ccnc3C(C)C)c3nc(-c4c(O)cccc4F)c(F)cc23)C(C)C1 (stereo unspecified) + Cc1cnc(CNC(=O)c2c(=O)c3ccc(N4CCCN(C)CC4)nc3n3c2sc2ccccc23)cn1
IC50 (second compound 0.0316 µM): > 10 µM | IC50 (second compound 0.1 µM): > 10 µM | IC50 (second compound 0.316 µM): < 0.0316 µM | IC50 (second compound 1 µM): < 0.0316 µM | IC50 (second compound 3.16 µM): < 0.0316 µM | IC50 (second compound 10 µM): < 0.0316 µM | viability, T/C [1]: 106% | viability, T/C [2]: 85.1% | viability, T/C [3]: 91.4% | viability, T/C [4]: 88.1% | viability, T/C [5]: 111% | viability, T/C [6]: 79.3% | viability, T/C [7]: 59.7% | viability, T/C [8]: 69.3% | viability, T/C [9]: 64.4% | viability, T/C [10]: 73% | viability, T/C [11]: 78.2% | viability, T/C [12]: 67% | viability, T/C [13]: 19.7% | viability, T/C [14]: 25.7% | viability, T/C [15]: 26.4% | viability, T/C [16]: 22.1% | viability, T/C [17]: 34.4% | viability, T/C [18]: 30.8% | viability, T/C [19]: 4.37% | viability, T/C [20]: 5.36% | viability, T/C [21]: 4.38% | viability, T/C [22]: 4.4% | viability, T/C [23]: 4.7% | viability, T/C [24]: 5.94% | viability, T/C [25]: 2.59% | viability, T/C [26]: 2.48% | viability, T/C [27]: 2.57% | viability, T/C [28]: 3.03% | viability, T/C [29]: 3.31% | viability, T/C [30]: 2.69% | viability, T/C [31]: 1.16% | viability, T/C [32]: 1.17% | viability, T/C [33]: 1.22% | viability, T/C [34]: 1.56% | viability, T/C [35]: 1.95% | viability, T/C [36]: 1.37%

CC(=O)O[C@H]1C(=O)[C@@]2(C)[C@H]([C@H](OC(=O)c3ccccc3)[C@]3(O)C[C@H](OC(=O)[C@H](O)[C@@H](NC(=O)c4ccccc4)c4ccccc4)C(C)=C1C3(C)C)[C@]1(OC(C)=O)CO[C@@H]1C[C@@H]2O + Cc1[nH]c2ccc(F)cc2c1-c1nc2c3cccnc3c3ncccc3c2[nH]1
IC50 (second compound 0.0316 µM): < 0.0316 µM | IC50 (second compound 0.1 µM): < 0.0316 µM | IC50 (second compound 0.316 µM): 0.0413 µM | IC50 (second compound 1 µM): 0.0329 µM | IC50 (second compound 3.16 µM): 0.0395 µM | IC50 (second compound 10 µM): < 0.0316 µM | viability, T/C [1]: 43.9% | viability, T/C [2]: 16.9% | viability, T/C [3]: 11.6% | viability, T/C [4]: 11.4% | viability, T/C [5]: 11.1% | viability, T/C [6]: 12.6% | viability, T/C [7]: 44.9% | viability, T/C [8]: 17.1% | viability, T/C [9]: 11.4% | viability, T/C [10]: 11.8% | viability, T/C [11]: 12.7% | viability, T/C [12]: 13.1% | viability, T/C [13]: 59.8% | viability, T/C [14]: 17.8% | viability, T/C [15]: 10.8% | viability, T/C [16]: 11% | viability, T/C [17]: 12.8% | viability, T/C [18]: 13.5% | viability, T/C [19]: 51.2% | viability, T/C [20]: 17.7% | viability, T/C [21]: 11.8% | viability, T/C [22]: 12.3% | viability, T/C [23]: 14.2% | viability, T/C [24]: 12.4% | viability, T/C [25]: 58% | viability, T/C [26]: 16.6% | viability, T/C [27]: 14.5% | viability, T/C [28]: 12.8% | viability, T/C [29]: 15% | viability, T/C [30]: 16.4% | viability, T/C [31]: 43.2% | viability, T/C [32]: 17.1% | viability, T/C [33]: 14% | viability, T/C [34]: 13.3% | viability, T/C [35]: 16.7% | viability, T/C [36]: 16.2%
